The values below come from patent US20250302833A1, “PHARMACEUTICAL COMPOSITION FOR TREATING OR PREVENTING CYSTIC DISEASE” (CHUGAI SEIYAKU KABUSHIKI KAISHA, priority 2022, published 2025).

As usually defined, the IC50 is the point on the concentration scale where inhibition reaches its midpoint. A high value points to weaker potency.

The target in this test is T1, human PiT2 (Homo sapiens, UniProt Q08357).
T1 construct: expressed in transfected cells; host or cells: CHO cells, transient transfection with Fugene HD
T1 sequence (Q08357 1-652): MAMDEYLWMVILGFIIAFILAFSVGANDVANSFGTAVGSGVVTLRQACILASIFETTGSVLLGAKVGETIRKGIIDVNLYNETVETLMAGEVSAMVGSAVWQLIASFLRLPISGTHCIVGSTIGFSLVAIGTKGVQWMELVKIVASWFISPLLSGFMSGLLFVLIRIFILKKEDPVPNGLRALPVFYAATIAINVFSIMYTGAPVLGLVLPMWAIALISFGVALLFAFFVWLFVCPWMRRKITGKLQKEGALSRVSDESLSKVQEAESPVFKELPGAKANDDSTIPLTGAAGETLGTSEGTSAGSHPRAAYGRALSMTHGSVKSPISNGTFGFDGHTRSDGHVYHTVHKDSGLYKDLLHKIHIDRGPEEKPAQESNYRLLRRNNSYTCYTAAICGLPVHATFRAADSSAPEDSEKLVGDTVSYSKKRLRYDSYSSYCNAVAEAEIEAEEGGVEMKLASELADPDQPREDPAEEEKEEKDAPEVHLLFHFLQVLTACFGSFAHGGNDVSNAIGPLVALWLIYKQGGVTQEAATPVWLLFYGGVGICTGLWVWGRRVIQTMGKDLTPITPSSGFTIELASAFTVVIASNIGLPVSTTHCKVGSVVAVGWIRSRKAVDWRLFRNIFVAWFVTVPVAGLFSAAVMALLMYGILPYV
In words: 33PO4 uptake inhibition in CHO cells expressing human PiT2. In kind it is cell-based. The following applies: CHO cells transiently expressing human PiT2, pH 6.5. On the procedure:
For transient expression, human NaPi-IIb expression plasmids, human PiT1 expression plasmids, human PiT2 expression plasmids, and Fugene HD Transfection (Promega Corporation) were added to CHO cells using a 96-well plate, and the plate was incubated in a C02 incubator for 16 hours. The medium was replaced with buffer A (145 mM choline chloride, 3 mM KCl, 1 mM CaCl2), 0.5 mM MgCl2, 5 mM glucose, 5 mM MES, (pH 6.5)), and then replaced with buffer B (145 mM NaCl, 3 mM KCl, 1 mM CaCl2, 0.5 mM MgCl2, 5 mM glucose, 5 mM MES (pH 6.5)) to which a test compound was added at the final concentration of 0.01, 0.03, 0.1, 0.3, 1, 3, 10, or 30 μM, buffer A to which DMSO was added, or buffer B to which DMSO was added. After a certain time, a 1/20 amount of buffer A containing ^33PO4 (PerkinElmer Japan G. K.) was added and reacted at room temperature. After washing with ice-cooled buffer A, a liquid scintillator (MicroScint™-20, item number 6013621, PerkinElmer Japan G.K.) was added, and the ^33PO4 uptake amount was measured with the top count (Top Count NXT, PerkinElmer Japan G.K.). The inhibition rate was determined by the following formula. Here, a certain time was set to 10 minutes. […]

Regarding `CCCN([C@H]1CC[C@H](C(=O)[O-])CC1)S(=O)(=O)c1cccc(C(=O)Nc2sc3c(c2C(=O)Nc2ccc(CCCc4ccc(C(=O)[O-])cc4)cc2)CCCC3)c1.[Na+].[Na+]` [Compound 4, Disodium; 4-[3-[4-[[2-[[3-[(4-carboxylatocyclohexyl)-propylsulfamoyl]benzoyl]ami-no]-4,5,6,7-tetrahydro-1-benzothiophene-3-carbonyl]amino]phenyl]pro-pyl]benzoic acid], the IC50 is more than 30 µM.
